# From patent US8193333B2, “Cancer therapy using Bcl-Xl-specific siNA” (Centre Regional de Lutte Contre le Cancer-Centre Francois …, priority 2006, dated 2012)
# Key:
# [1] = tested on: Bcl-XL mRNA; assay: RT-PCR of Bcl-XL mRNA in SKOV3 cells after siRNA transfection; type: cell-based, human; settings: 72 h after transfection, FIG. 1A
# Protocol: (§1) The siRNA duplexes were transfected according to the recommended procedure by using the Oligofectamine Reagent and Opti-MEM medium (INVITROGEN LIFE TECHNOLOGIES). 30-40% confluent cells were transfected in 25 cm^2 flasks with different concentrations of siXL1, siRNA Mcl-1 or siRNA control and incubated at 37° C., 5% CO2 for 4 hours. Next, 20% fetal bovin serum was added to reach a final concentration of 10% foetal bovin serum in the 25 cm^2 flask.
# One μg of total RNA, extracted by RNAeasy kit (QIAGEN), was reverse-transcripted with 200 units Omniscript reverse transcriptase (QIAGEN) in first strand reaction conditions recommended by the manufacturer. The targeted cDNA were amplified using the following pair of primers, Bcl-XL/S forward 5′-[…]-3′ (SEQ ID NO: 11) and Bcl-XL/S reverse 5′-gtagagtggatggtcagtg-3′ (SEQ ID NO:12; Bargou et al., Int. J. Cancer, 1995, 16, 854-859), and amplified under the following cycling conditions: pre-incubation 94° C. for 5 min then 94° C. for 40 sec, 58° C. for 60 sec and 72° C. for 40 sec for 30 cycles, post-incubation 72° C. for 3 min within a Mastercycleur Gradient (EPPENDORF). The use of these primers allows the migration of Bcl-Xs and Bcl-XL PCR products as two distinct bands of respectively 576 and 765 bp.
# [2] = tested on: Bcl-XL protein; assay: Western blot of Bcl-XL protein expression in tumour cell lines after siRNA transfection; type: cell-based, human
# Protocol: SKOV3, OAW42, OAW42-R10, IGROV1 and IGROV1-R10 human ovarian adenocarcinoma cell lines, GL15 glioblastoma cell line, and NCI-H28 mesothelioma cell line were obtained from ECACC or ATCC. OAW42, OAW42-R10 cells were grown in DMEM (GIBCO-BRL) supplemented with 10% foetal calf serum (GIBCO-BRL), 2 mM Glutamax™ (GIBCO-BRL), 1 mM sodium pyruvate (GIBCO-BRL), 20 UI/L human recombinant insulin (LILLY), 33 mM sodium bicarbonate and 20 mM HEPES All the other cell lines were grown in RPMI 1640 medium (GIBCO-BRL) supplemented with 10% foetal calf serum (GIBCO-BRL), 2 mM Glutamax™ (GIBCO-BRL), 33 mM sodium bicarbonate and 20 mM HEPES. Cells were maintained at 37° C. in a 5% CO2 humidified atmosphere, and split twice a week by trypsinization.
# Exponentially growing cells were exposed to CDDP for 2 hours at 37° C., in serum free medium. After exposure to the drug, the cell layers were rinsed and incubated in complete growth medium.
# as §1
# Cells were rinsed with ice cold PBS and lysed in 150 mM NaCl, 50 mM Tris-HCl pH 8, 1% Triton X100, 4 mM PMSF, 2 mM Aprotinin, 5 mM EDTA, 10 mM NaF, 10 mM NaPPi, 1 mM Na3VO4 for 30 min on ice. Lysates were clarified by centrifugation at 10000 g for 10 min at 4° C. and protein concentrations were determined using the Bradford assay (BIO-RAD). Equal amounts of total cellular protein (20 μg) were resolved in a Bis-tris-HCL buffered (pH 6.4) 4-12% polyacrylamide gel (NuPAGE® Novex® 4-12% Bis-tris gel, INVITROGEN) for 35 min at 200V and electrophoretically transferred on a PVDF membrane (MILLIPORE) for 75 min at 30V. The membrane was blocked for 1 hour at room temperature in T-TBS (132 mM NaCl, 20 mM Tris-HCl pH 7.6, 0.05% Tween 20) supplemented with 5% non-fat dry milk. The membrane was incubated for 1 hour at room temperature in T-TBS-milk with the following primary antibodies: anti-Bcl-XL/S (1:500, S18 SANTA-CRUZ BIOTECHNOLOGY), anti-PARP (1:1000, CELL-SIGNALING TECHNOLOGY), anti-caspase-3 (1:1000, BD BIOSCIENCES PHARMINGEN) anti-cleaved caspase-3 (1:1000, CELL-SIGNALING TECHNOLOGY), anti-alpha-tubulin (1:3000, SIGMA) and anti-Mcl-1 (1:750, S19 SANTA-CRUZ BIOTECHNOLOGY). After three washes with T-TBS, the membrane was incubated for 1 h at room temperature in T-TBS-milk with the adequate peroxidase conjugated secondary antibody (Anti-rabbit IgG, CELL-SIGNALING TECHNOLOGY, and anti-mouse IgG, AMERSHAM). After 3 washes with T-TBS and one with TBS, the immunoreactivity was detected by enhanced chemiluminescence (ECL kit, AMERSHAM).
# [3] = tested on: Mcl-1 protein; assay: Western blot of Mcl-1 protein expression in SKOV3 cells; type: cell-based, human; settings: FIG. 11B
# Protocol: as §1
# Cells were rinsed with ice cold PBS and lysed in 150 mM NaCl, 50 mM Tris-HCl pH 8, 1% Triton X100, 4 mM PMSF, 2 mM Aprotinin, 5 mM EDTA, 10 mM NaF, 10 mM NaPPi, 1 mM Na3VO4 for 30 min on ice. Lysates were clarified by centrifugation at 10000 g for 10 min at 4° C. and protein concentrations were determined using the Bradford assay (BIO-RAD). Equal amounts of total cellular protein (20 μg) were resolved in a Bis-tris-HCL buffered (pH 6.4) 4-12% polyacrylamide gel (NuPAGE® Novex® 4-12% Bis-tris gel, INVITROGEN) for 35 min at 200V and electrophoretically transferred on a PVDF membrane (MILLIPORE) for 75 min at 30V. The membrane was blocked for 1 hour at room temperature in T-TBS (132 mM NaCl, 20 mM Tris-HCl pH 7.6, 0.05% Tween 20) supplemented with 5% non-fat dry milk. […] After 3 washes with T-TBS and one with TBS, the immunoreactivity was detected by enhanced chemiluminescence (ECL kit, AMERSHAM).
# [4] = tested on: subcutaneous SKOV3 human ovarian carcinoma; assay: Growth of subcutaneous SKOV3 tumours in nude mice; type: in vivo; settings: 25 μg/kg intraperitoneally once a week, FIG. 16
# Protocol: PEI/siRNA complexes were prepared in 5% glucose solution with a ratio of L-PEI nitrogen to siRNA phosphate of 5:1. Various amounts of siRNA (125, 625 or 2500 ng) and L-PEI were diluted separately, and PEI was then added to the siRNA. The solution was quickly homogenized and left for 15 min at room temperature. It was injected intraperitoneally in mice as a 0.5 ml 5% glucose solution.
# SKOV3 cells (2×10^7/500 μL) were inoculated subcutaneously into the right flank of nude mice, and establishment of palpable tumours was determined. The tumour volume was calculated as v=L×l^2×p/6 where L and l represent the larger and the smaller tumour diameter measured twice week with digital caliper. When tumours reached an average volume of ˜100 mm^3 (on day 10), three experimental groups (three mice per group) were tested as follow: (a) untreated, (b) siXL1 naked (25 μg/kg), and (c) siXL1-PEI (25 μg/kg). The samples were diluted in 0.5 ml 0.9% NaCl solution (siRNA naked) or in 0.5 ml 5% glucose solution (siRNA-PEI) and injected intraperitoneally. This process was repeated once a week.
# [5] = SKOV3 cells, 100 nM siXL1, FIG. 4
substance,measurement,setting,value
"siXL1: double-stranded siRNA blocking Bcl-XL expression; sense 5′-auuggugagucggaucgcatt-3′ (SEQ ID NO: 5), anti-sense 5′-ugcgauccgacucaccaautt-3′ (SEQ ID NO: 6) (sense AUUGGUGAGUCGGAUCGCATT; antisense UGCGAUCCGACUCACCAAUTT; chemistry not given here)",Bcl-XL mRNA level (RT-PCR),[1],greatly reduces
same,optimal concentration,[2]; SKOV3 cells,150 nM
same,persistence of the siXL1 effect,[2]; SKOV3 cells,96 h
same,effect on Bcl-XL protein expression at lower dose,"[2]; SKOV3 cells, 25 nM, FIG. 4",greatly reduced and delayed
same,time of maximum decrease of Bcl-XL protein expression,[2]; [5],72 h
same,time of reappearance of Bcl-XL protein expression,[2]; [5],≥ 144 h
same,Bcl-XL protein expression 24 hours after transfection,"[2]; SKOV3 cells, 24 hours after siXL1 transfection",reduced
same,effect of various concentrations on Bcl-XL protein expression,"[2]; SKOV3 cells, 72 h after transfection, FIG. 3",dose-dependent
same,Bcl-XL protein expression 24 hours after exposure to cisplatin,"[2]; SKOV3 cells, 72 hours after siRNA transfection, cisplatin 5 and 20 μg/ml, FIG. 9",disappears almost completely
same,Bcl-XL protein expression after 72 hours,"[2]; SKOV3 cells, 72 hours after transfection, FIG. 1C",disappeared totally
same,Bcl-XL protein expression 96 hours after cisplatin exposure,"[2]; SKOV3 cells, 144 hours after transfection, combination with 20 μg/ml cisplatin, FIG. 9",reappears
same,Bcl-XL protein expression in various tumor cell lines,"[2]; ovarian carcinoma, glioblastoma or mesothelioma cells, 72 h after transfection, FIGS. 2A&B",extinction
same,dose dependence of extinction of Mcl-1 protein expression,[3],dose-dependent
same,effect on subcutaneous tumor growth,[4],almost no effect
